Laboratory results: ChEMBL document CHEMBL1129586, “Estrogenic triarylethylene acetic acids: effect of structural variation on estrogen receptor affinity and estrogenic potency and efficacy in MCF-7 cells” (J Med Chem, 1996)
Active and inactive are the calls of the source. The rule behind the calls is not given here.

Legend:
[1] = tested on: MCF7; assay: Inhibition of MCF-7 cell proliferation; assay type: functional; conditions: Homo sapiens
[2] = molecular target: Estrogen receptor (Rattus norvegicus, UniProt P06211+Q62986)
[3] = tested on: MCF7; assay: cells; conditions: Homo sapiens
[4] = tested on: MCF7; assay: cells; conditions: Homo sapiens; remark: listed apart in the source
Description: Stimulation of MCF-7 cell proliferation

[5] = tested on: MCF7; assay: Inhibition of MCF-7 cell proliferation; h=No inhibitory effect; assay type: functional, cell-based; conditions: Homo sapiens

SMILES: CC/C(=C(\c1ccc(O)cc1)c1ccc(CC(=O)O)cc1)c1ccccc1
- IC30 [1]: 2.5 nM
- IC50 [2]: 450 nM
- IC50 [3]: 58 nM
- EC50 [4]: 42 nM

SMILES: CC/C(=C(\c1ccccc1)c1ccc(OCC(=O)O)cc1)c1ccccc1
- IC30 [1]: 20 nM
- IC50 [2]: 4500 nM
- IC50 [3]: 320 nM
- EC50 [4]: 300 nM

SMILES: CCC(=C(c1ccc(O)cc1)c1ccc(O)cc1)c1ccc(OCC(=O)O)cc1
- IC30 [5]: inactive
- IC50 [2]: 750 nM
- IC50 [3]: 2390 nM
- EC50 [4]: 46 nM

SMILES: O=C(O)COc1ccc(C(Cc2ccccc2)c2ccc(O)cc2)cc1 (centres undefined)
- IC30 [5]: inactive
- IC50 [2]: 900 nM
- IC50 [3]: 600 nM
- EC50 [4]: 16 nM

SMILES: CC/C(=C(\c1ccc(C)cc1)c1ccc(OCC(=O)O)cc1)c1ccccc1
- IC30 [1]: 13 nM
- IC50 [2]: 1060 nM
- IC50 [3]: 97 nM
- EC50 [4]: 350 nM

SMILES: CC/C(=C(\c1ccc(O)cc1)c1ccc(OCC(=O)O)cc1)c1ccccc1
- IC30 [1]: 30 nM
- IC50 [2]: 9 nM
- IC50 [3]: 21 nM
- EC50 [4]: 5.3 nM
